Data reported in PMC8669712, “G Protein-Coupled Receptor GPR35 Suppresses Lipid Accumulation in Hepatocytes” (ACS Pharmacology & Translational Science, 2021).
Entries after “also recorded” stand apart in the source; their conditions may differ.

Legend:
[1] = test system: clone 27 HepG2 cells transfected with human GPR35a; assay: Cellular impedance in clone 27 cells transiently transfected with human GPR35a; assay type: cell-based; details: lodoxamide 1 × 10^–8 M
Experimental: Briefly, CRISPR KO cells were transiently transfected 24 h with the human GPR35a expression vector using LipofectAMINE 3000 reagent, according to the manufacturer’s instructions. […] Alternatively, after 24 h transfection, cells were seeded onto a 12-well plate (1 × 10^5 cells/well) for 24 h at 37 °C. Then, cells were incubated with T0901317 and/or GPR35 agonists (in MEM containing 5% FBS) for 72 h. After the drug treatment, cells were stained with Oil Red O to examine the levels of lipid accumulation. Each experiment was repeated at least three times.
HepG2 cells were seeded onto xCELLigence E plates (2 × 10^4 cells/well) and incubated for 24 h at 37 °C. To evaluate GPR35 activation and its downstream G protein signaling, HepG2 cells or primary mouse hepatocytes were exposed to GPR35 antagonists or G protein inhibitors 1 h (overnight for Pertussis toxin) prior to GPR35 agonist stimulation. After the addition of GPR35 agonist or vehicle control, the impedance (represented as “cell index”) was recorded every 30 s over a 2 h period using xCELLigence RTCA (Agilent). Each experiment was repeated at least three times.

HepG2 cells = assay: Oil Red O staining of LXR (T0901317)-induced lipid accumulation in HepG2 cells; assay type: cell-based, human
Experimental: Human hepatocellular carcinoma HepG2 cells were grown in Minimum Essential Medium (MEM) supplemented with 10% fetal bovine serum (FBS), 2 mM L-glutamine, 1× non-essential amino acid, 1 mM sodium pyruvate, and 1× penicillin/streptomycin. Materials for cell culture were all from Sigma-Aldrich (St. Louis, MO) or Thermo Fisher Scientific (Waltham, MA). Cells were incubated in a humidified CO2 incubator at 37 °C. […] Cells were seeded onto a 12-well plate (1 × 10^5 cells/well) for 24 h prior to drug treatment. […] Lipid accumulation was measured by Oil Red O staining.

human GPR35a = human GPR35a (Homo sapiens, UniProt Q9HC97); assay: β-arrestin-based interaction assay, agonist potency at human GPR35a; assay type: cell-based
Chain of human GPR35a (Q9HC97 whole entry): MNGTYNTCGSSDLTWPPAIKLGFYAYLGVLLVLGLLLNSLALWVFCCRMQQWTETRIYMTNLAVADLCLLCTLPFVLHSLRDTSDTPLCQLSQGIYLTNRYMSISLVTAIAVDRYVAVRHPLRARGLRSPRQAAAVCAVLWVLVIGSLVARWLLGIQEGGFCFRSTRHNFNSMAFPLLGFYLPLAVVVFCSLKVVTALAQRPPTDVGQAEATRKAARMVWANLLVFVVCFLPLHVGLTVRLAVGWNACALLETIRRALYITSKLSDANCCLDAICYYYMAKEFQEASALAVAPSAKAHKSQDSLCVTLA

[2] = test system: high-fat diet-induced wild-type mice; set-up: method as in PMID 31189299; details: oral, 1 mg/kg, final 7 days of a 7-week-diet exposure; cited from earlier work
[3] = test system: hepatocytes from hGPR35a-HA-expressing mice; assay: Oil Red O lipid accumulation in hepatocytes from hGPR35a-HA-expressing mice; assay type: cell-based, mouse
Experimental: All mice were bred as WT or homozygous onto a C57BL/6N background. Animals were cared for in accordance with national guidelines on animal experimentation. All animal experiments were conducted under a home office license held by the authors. WT, humanized GPR35a, or KO male mice at 3–4 months of age were used in this study. These mice were fed ad libitum with a standard mouse chow diet. Briefly, mouse primary hepatocytes were isolated using a two-step collagenase perfusion technique.[45] Twelve-well plates or xCELLigence E plates were coated with rat tail collagen I solution (Thermo Fisher Scientific) overnight at 37 °C and washed with PBS. Isolated primary hepatocytes were seeded onto 12-well plates (8 × 10^4 cells/well) or xCELLigence E plates (2 × 10^4 cells/well) in Wiliam’s E medium (Thermo Fisher Scientific) supplemented with 10% fetal bovine serum (FBS) and 1× penicillin/streptomycin. Cells were maintained for 7 days with a fresh medium change every other day. […] Human GPR35 activation was examined using xCELLigence RTCA assay. To access the impact of GPR35 agonists on the lipid accumulation, WT and humanized GPR35 hepatocytes were incubated with T0901317 and/or GPR35 agonists/antagonists, as indicated (in DMEM medium containing 5% FBS and 1.5% BSA) for 48 h. Alternatively, GPR35 KO hepatocytes were incubated with drugs, as indicated for 5 days. In the T0901317 pretreatment model, human GPR35 hepatocytes were stimulated with T0901317 for 2 days and then further treated with lodoxamide for a further 3 days. After each drug treatment, hepatocytes were stained with Oil Red O and quantified as described. Each experiment was repeated at least three times.
Lipid accumulation was measured by Oil Red O staining. A working solution of Oil Red O was prepared, as described with modification.[46] After drug treatment, cells were washed with PBS and fixed with formalin solution for 1 h at 4 °C. Then, cells were stained with Oil Red O working solution for 10 min at room temperature. After PBS washing, Oil Red O was extracted from cells using 150 μl of isopropanol and OD510 nm measured. After the lipid extraction, cells were further soaked in PBS overnight at 4 °C. These cells were then stained with Hoechst 33342 (1 μg/mL) and the fluorescence intensity of Hoechst (represents the DNA content in cells) was measured using a CLARIOstar plate reader (BMG LABTECH). Oil Red O accumulation was corrected for differences in DNA content and expressed as relative absorbency, taking the control condition (treated with vehicle only) as 1.

[4] = test system: GPR35 genome-edited HepG2 clones; assay: Label-free cellular impedance assay in GPR35 genome-edited HepG2 clones 19 and 27; assay type: cell-based, human; details: 1 × 10^–5 M
Excerpt: Expression of full-length mRNA from the GPR35 gene was eliminated using a dual synthetic gRNA/RNP approach[43] with one guide cutting the intron and one in the exon region to generate a nonfunctional GPR35 protein. The gRNAs were designed with the CRISPR Finder (Welcome Sanger Institute). HepG2 cells were transfected with the Neon Transfection System from Thermo Fisher Scientific (Waltham, MA), according to the manufacturer’s instructions. Briefly, CrRNA and tracrRNA were annealed to gRNA at 95 °C for 5 min. Next, cells were transfected with gRNA, Cas9, and the electroporation enhancer, according to the manufacturer’s instructions. All crRNAs, tracrRNA, SpCas9 nuclease, and the electroporation enhancer were purchased from Integrated DNA Technologies (Coralville, IA). Transfected cells were plated and analyzed for editing efficiency 24–48 h after electroporation. Single-cell clones were generated by single-cell FACS sorting. Clones were expanded and to access editing efficiency, genomic DNA from cell clones was extracted and subjected to PCR to confirm the genome deletion. To further quantify and capture the genomic DNA deletion, PCR primers listed in Table S1 were designed to amplify the genomic DNA surrounding the target site. The PCR primers were linked to the sequences of the Illumina Nextera adapters. The amplified PCR products were subjected to paired-end sequencing using NextSeq500 from Illumina using paired-end chemistry with a 150-bp read length. In addition, mRNA from KO clones was isolated and subjected to RT-PCR. To further confirm the abrogation of GPR35 activation in CRISPR KO clones, KO cells were seeded onto xCELLigence E plates (2 × 10^4 cells/well) for 24 h at 37 °C prior to the treatment of GPR35 agonists. The impedance was recorded using xCELLigence RTCA. […]
HepG2 cells were seeded onto xCELLigence E plates (2 × 10^4 cells/well) and incubated for 24 h at 37 °C. […] After the addition of GPR35 agonist or vehicle control, the impedance (represented as “cell index”) was recorded every 30 s over a 2 h period using xCELLigence RTCA (Agilent). […]

Q: With `N#Cc1cc(NC(=O)C(=O)O)c(Cl)c(NC(=O)C(=O)O)c1` [lodoxamide, 2-[2-chloro-5-cyano-3-(oxaloamino)anilino]-2-oxoacetic acid] as the compound, how does the “impedance signal in clone 27 cells transfected with human GPR35a” value [1] read?
A: The value was “stimulated signal”.

Q: What about the “effect on basal lipid accumulation without co-addition of T0901317” value (HepG2 cells; 1 × 10^–5 M) of the same compound?
A: The value was “no significant effect”.

Q: What about the EC50 (HepG2 cells; Homo sapiens, co-incubation with T0901317 4 × 10^–6 M, 48 h, Oil Red O, read-out: EC50 for reduction in the lipid accumulation induced by T0901317) of the same compound?
A: Its EC50 is 95 nM.

Q: What about the “effect of T0901317 on lipid accumulation at maximally effective concentrations of lodoxamide” value (HepG2 cells; T0901317 4 × 10^–6 M, 48 h) of the same compound?
A: Its value is “fully suppressed”.

Q: What about the “ratio (log) (H/M)” value (human GPR35a; log ratio of potency at human GPR35a over mouse GPR35) of the same compound?
A: The value was 2.66 ± 0.05.

Q: And the EC50 (human GPR35a; β-arrestin-based interaction assay, read-out: human GPR35a, pEC50 (converted))?
A: Its EC50 is 4.17 nM.

Q: What about the “effect of treatment in high-fat diet-induced wild-type mice” value [2] of the same compound?
A: The value was “beneficial effects”.

Q: What about the EC50 ([3]; Mus musculus, Hepatocyte, hepatocytes from hGPR35a-HA-expressing mice, co-addition with T0901317 8 × 10^–6 M, 48 h, read-out: EC50 for prevention of T0901317-induced lipid accumulation) of the same compound?
A: The EC50 was 17 nM.

Q: What about the “reversal of pre-established lipid accumulation” value ([3]; T0901317 8 × 10^–6 M for 2 days, then lodoxamide added with continued T0901317) of the same compound?
A: The value was “sufficient to reduce lipid levels to those observed in the absence of T0901317; also recorded: reduced to basal”.

Q: What about the “potency in the reversal setting relative to co-addition” value ([3]; T0901317 pretreatment model) of the same compound?
A: The value was “less potent than when added alongside T0901317”.

Q: And the “impedance signal in GPR35 genome-edited clones 19 and 27” value [4]?
A: The value was “not in either clone 19 or 27”.
